Here are results for 73 compounds from publication PMC12040169 (PLOS Biology, 2025).

Molecules are shown by their SMILES.

As a reminder, the viability is a read-out of living cells in per cent, often relative to untreated cells.

The nature of this data set: in vitro. The conditions noted are these: human, hela cells, % viability.
Take `Cn1cc(CC(=O)Nc2nc3c(cc2C#N)CCCC3)cn1` [CBK306436]: the viability at 28.5 h, 10 µM was found to be 90.7%.

On to `O=C(O)CCC(=O)Nc1ccc2c(c1)oc1ccccc12` [CBK261597], for which the viability at 28.5 h, 10 µM turned out to be 86.3%.

With `CCOc1ccc(NC(=O)c2ccc(CN3CCOCC3)cc2)cc1` [CBK033557], the viability at 28.5 h, 10 µM came to 89.7%.

Regarding `COc1ccc(-c2cc(C(F)(F)F)c3c(n2)sc2c(=O)cc(O)[nH]c23)cc1OC` [CBK270201], the viability at 28.5 h, 10 µM was 84.6%.

On to `CCn1cc(-c2cncn2CCOc2ccc(C)cc2)cn1` [CBK281623], for which the viability at 28.5 h, 10 µM was 88.5%.

Take `CC(=O)N(C)c1nc(-c2cccc(N(C)C)c2)ccc1C(=O)NCCc1ccc(S(N)(=O)=O)cc1` [CBK076578]: the viability at 28.5 h, 10 µM worked out at 88.8%.

For `COc1ccc(NC(=O)c2sc(Cl)nc2C)cc1` [CBK057902], the viability at 28.5 h, 10 µM worked out at 97.1%.

Consider `CCC(CO)Nc1nccnc1-c1ccc(CO)cc1` (stereo not shown) [CBK036607], for which the viability at 28.5 h, 10 µM was found to be 93%.

For the compound `O=C(NCCC1SC(NC2CC3C=CC2C3)=NC1=O)c1ccccc1Cl` (stereo not shown) [CBK200062], the viability at 28.5 h, 10 µM worked out at 113%.

On to `COc1cc(/C=C/CN2CCC(C(=O)NC(C)c3ccc(F)cc3)CC2)ccc1OC(C)=O` (stereo not shown) [CBK148061], for which the viability at 28.5 h, 10 µM amounted to 90.1%.

Regarding `CCSc1nc(SCC)c2c3c([nH]c2n1)CCCC3` [CBK019936], the viability at 28.5 h, 10 µM was determined as 94.6%.

Consider `Cc1csc(C(Cc2cccs2)NC(=O)C2CCOCC2)n1` (stereo not shown) [CBK285006], for which the viability at 28.5 h, 10 µM worked out at 89.2%.

`O=C(O)c1cccc(NS(=O)(=O)c2ccc(Br)cc2F)c1` [CBK155691]: the viability at 28.5 h, 10 µM was 95.6%.

As for `CNC(=O)CN1CCC[C@@H]2NC(=O)COc3ccccc3C(=O)N[C@@H]3CCOC[C@@H]3C/C=C/C[C@@H]21` [CBK292040], the viability at 28.5 h, 10 µM came out at 100%.

Take `CCCN1CCCC(c2cccc(O)c2)C1` (stereo not shown) [CBK016405B]: the viability at 28.5 h, 10 µM came to 92.6%.

As for `Cc1ccc(N(CC(=O)Nc2cccnc2)S(=O)(=O)c2ccc(F)cc2)cc1` [CBK263332], the viability at 28.5 h, 10 µM is 93.8%.

Turning to `CS(=O)(=O)CCC(C(=O)O)N1C(=O)c2ccc(Oc3ccc(Cl)cc3)cc2C1=O` (stereo not shown) [CBK266377], the viability at 28.5 h, 10 µM was determined as 92%.

Consider `Cc1cc(Br)ccc1-n1sc2ccccc2c1=O` [CBK116239], for which the viability at 28.5 h, 10 µM was 87%.

For `Cc1ccc(CNC(=O)CSc2nc(C)c(C)c(=O)[nH]2)cc1` [CBK287735], the viability at 28.5 h, 10 µM stood at 92.8%.

`Cc1ccc(OCC(=O)NC(=S)Nc2cc(C(=O)O)ccc2C)cc1` [CBK265000]: the viability at 28.5 h, 10 µM came out at 96.8%.

Consider `Cc1cc(NC(=O)c2nn(-c3nc4ccccc4s3)c3ccccc23)no1` [CBK048489], for which the viability at 28.5 h, 10 µM stood at 95.4%.

For the compound `Cc1cc(NC(=O)c2cc(C)oc2C)no1` [CBK058081], the viability at 28.5 h, 10 µM amounted to 88.7%.

In the case of `N#Cc1ccc(NC(=O)NCCc2cccs2)cc1` [CBK043736], the viability at 28.5 h, 10 µM stood at 115%.

Take `COC(=O)c1c(NC(=S)Nc2cnccn2)sc2c1CCC2` [CBK266935]: the viability at 28.5 h, 10 µM came out at 90.3%.

As for `COCCNC(=O)c1ccc(-n2ccnc2)c(-n2cccc2)c1` [CBK285369], the viability at 28.5 h, 10 µM came out at 85.5%.

For the compound `Cc1cc(C)c2nc(-c3ccccn3)cc(C(=O)NCc3cccs3)c2c1` [CBK267772], the viability at 28.5 h, 10 µM came to 86.1%.

On to `O=C(NC(Nc1cccc(C(F)(F)F)c1)C(=O)c1ccccc1)c1ccc(Cl)cc1` (stereo not shown) [CBK263585], for which the viability at 28.5 h, 10 µM stood at 89.5%.

With `O=C(NCCCc1ccccn1)c1cccc(N2CCCC2=O)c1` [CBK282643], the viability at 28.5 h, 10 µM turned out to be 85.9%.

Consider `O=C(Cn1ccnc1)Nc1ccccc1Oc1ccc(F)cc1` [CBK281455], for which the viability at 28.5 h, 10 µM is 90.1%.

For `CCOC(=O)c1cn(CCSCC)cc(Oc2ccccc2)c1=O` [CBK307244], the viability at 28.5 h, 10 µM turned out to be 115%.

Consider `CC1CCc2c(sc3nc(CN4CCCCC4C)[nH]c(=O)c23)C1` (stereo not shown) [CBK304975], for which the viability at 28.5 h, 10 µM came out at 89.3%.

As to `O=C(c1ccc2[nH]c(=O)[nH]c2c1)N1CCC(Cn2cncn2)(C2CCCCC2)CC1` [CBK136824], the viability at 28.5 h, 10 µM was 104%.

In the case of `Cc1cc(C2CCCCCN2Cc2c(C)nn(C)c2C)no1` (stereo not shown) [CBK284846], the viability at 28.5 h, 10 µM is 87.6%.

For the compound `Cc1nnc(SCC(=O)c2ccccc2)[nH]1` [CBK026287], the viability at 28.5 h, 10 µM stood at 99.5%.

Take `CC(C)NC(=O)/C(=C/c1c[nH]c2ncccc12)c1ccccc1` [CBK115357]: the viability at 28.5 h, 10 µM stood at 95.8%.

Turning to `Cc1cc(C)n(CC(=O)N2CCC(Nc3cccnn3)CC2)n1` [CBK306234], the viability at 28.5 h, 10 µM worked out at 106%.

Regarding `O=C(O)c1cccc(NS(=O)(=O)c2cc3ccccc3o2)c1` [CBK200423], the viability at 28.5 h, 10 µM is 97.4%.

As for `O=C(c1ccc2c(c1)C(=O)N(c1ccncc1)C2=O)c1ccc2c(c1)C(=O)N(c1ccncc1)C2=O` [CBK261194], the viability at 28.5 h, 10 µM was 88.5%.

Consider `Cc1nn2c(COc3ccc(NC(=O)C4CCCCC4)cc3)nnc2c2ccccc12` [CBK268528], for which the viability at 28.5 h, 10 µM was 104%.

With `O=S(=O)(Nc1ccc2c(ccn2Cc2ccccc2)c1)c1cc(C(F)(F)F)cc(C(F)(F)F)c1` [CBK159540], the viability at 28.5 h, 10 µM amounted to 94.7%.

Regarding `NC(=S)N1N=C2CCCCC2C1c1ccccc1` (stereo not shown) [CBK288371], the viability at 28.5 h, 10 µM came to 84.2%.

Consider `O=C(C1CCCC1)N1C2CCC1CC(O)(c1cccnc1F)C2` (stereo not shown) [CBK284421], for which the viability at 28.5 h, 10 µM amounted to 88.4%.

Take `Cc1ncsc1C(=O)N1CCNCC1c1cccc(F)c1` (stereo not shown) [CBK305463]: the viability at 28.5 h, 10 µM amounted to 93.1%.

For `O=S(=O)(Cc1ccc(Cl)cc1)N1CCN(Cc2ccc3c(c2)OCO3)CC1` [CBK074827], the viability at 28.5 h, 10 µM was found to be 101%.

For `O=C(Nc1ncn(CC(=O)N2CCCCCC2)n1)c1cccc(F)c1` [CBK304904], the viability at 28.5 h, 10 µM came out at 87.5%.

Turning to `Cc1ccc2c(c1)C(=O)CC1(CCN(C(=O)OC(C)(C)C)CC1)O2` [CBK283599], the viability at 28.5 h, 10 µM stood at 98%.

Turning to `COC(=O)[C@@H]1Cc2ncn(C(C)C)c2CN1C(=O)c1ccc(F)cc1` [CBK288990], the viability at 28.5 h, 10 µM amounted to 80.6%.

`NCCCNc1ccc(C(=O)Nc2ccc(Cl)cc2)cc1[N+](=O)[O-]` [CBK267880]: the viability at 28.5 h, 10 µM is 116%.

As to `O=C(O)CCCn1cc(NC(=O)c2ccccc2Br)cn1` [CBK270100], the viability at 28.5 h, 10 µM was found to be 82.9%.

`COc1ccc(C(=O)Nc2ccc(N3CCN(C(=O)C(C)(C)C)CC3)cc2)cc1OC` [CBK270245]: the viability at 28.5 h, 10 µM came out at 90.6%.

On to `Cc1nn(CC(=O)C(C)(C)C)c(=O)c2cc3sccc3n12` [CBK284111], for which the viability at 28.5 h, 10 µM worked out at 87.2%.

Consider `Cc1nn(C)c(C)c1NC(=O)CN1CCN(c2cccc(Cl)c2)CC1` [CBK306052], for which the viability at 28.5 h, 10 µM is 81.1%.

As to `COc1ccc(NC(=O)c2ccc(CN3CCOCC3)cc2)c(OC)c1` [CBK263790], the viability at 28.5 h, 10 µM is 91.4%.

`CC1(C)CC(NC(=O)CCc2cc(C(C)(C)C)c(O)c(C(C)(C)C)c2)CC(C)(C)N1` [CBK261986]: the viability at 28.5 h, 10 µM amounted to 88.9%.

For `Cc1nnc(O)c2c(C)n(-c3ccc(Br)cc3)nc12` [CBK008726], the viability at 28.5 h, 10 µM amounted to 86.2%.

In the case of `O=C(Nc1cccc(C(=O)O)c1)/C(=C\c1ccccc1)NC(=O)c1ccccc1Cl` [CBK263710], the viability at 28.5 h, 10 µM is 90.4%.

For the compound `O=C(OCc1ccc(S(=O)(=O)c2ccccc2)cc1)c1cc(O)nc2ccccc12` [CBK266782], the viability at 28.5 h, 10 µM came out at 93.1%.

As to `N#Cc1ccc(Sc2cccc(F)c2)c(F)c1` [CBK002909], the viability at 28.5 h, 10 µM was 115%.

For the compound `CCN(CC(=O)NCc1ccc(F)cc1)C(=O)c1ccc(C#N)cc1` [CBK305841], the viability at 28.5 h, 10 µM stood at 100%.

Consider `O=C(O)C1C2C=CC(O2)C1C(=O)NCc1ccccn1` (stereo not shown) [CBK058859], for which the viability at 28.5 h, 10 µM stood at 99.1%.

Turning to `c1ccc(-c2nnc(-c3ccncc3)nc2-c2ccccc2)cc1` [CBK270061], the viability at 28.5 h, 10 µM is 81.1%.

For the compound `CC(=O)N1CC(C)(C)c2ccccc21` [CBK003715], the viability at 28.5 h, 10 µM came out at 99.6%.

Consider `Cc1c(F)cccc1CN(CC(C)(C)CN)C(=O)Nc1ccc(C(F)(F)F)cc1` [CBK002417C], for which the viability at 28.5 h, 10 µM stood at 89.5%.

In the case of `CCC(=O)N1CCCc2cc(C(O)CN3CCN(c4ccc(F)cc4)CC3)ccc21` (stereo not shown) [CBK286480], the viability at 28.5 h, 10 µM is 95.3%.

Take `COCCNc1cc(-c2ccc(Cl)cc2)ncn1` [CBK090797]: the viability at 28.5 h, 10 µM came out at 96.3%.

In the case of `Cn1cnnc1SCCNC(=O)N1CCCN(Cc2cccs2)CC1` [CBK307485], the viability at 28.5 h, 10 µM was 94%.

As for `O=C(COc1ccc(Cl)cc1Cl)Nc1ccc(CN2CCCCC2)cc1` [CBK266164], the viability at 28.5 h, 10 µM was determined as 105%.

For `N#Cc1ccc(NC(=O)Nc2ccccc2)cc1` [CBK086045], the viability at 28.5 h, 10 µM was found to be 87.8%.

Consider `Cc1ncccc1COC(=O)N1c2ccc(F)cc2CCC1C` (stereo not shown) [CBK200139], for which the viability at 28.5 h, 10 µM stood at 92.2%.

Take `COc1cccc(-c2ccc(NC(=O)c3ccc(Cn4cnnn4)cc3)cc2)c1` [CBK285850]: the viability at 28.5 h, 10 µM came out at 93.4%.

On to `O=c1cc(O)cc(CCc2ccccc2)o1` [CBK012714], for which the viability at 28.5 h, 10 µM stood at 117%.

Regarding `COc1ccccc1-c1nccnc1NCc1ccc(OC(F)(F)F)cc1` [CBK036761], the viability at 28.5 h, 10 µM came out at 96%.

For `CN(C)c1ccc(/C=C/CN2CCN(c3ccc([N+](=O)[O-])cc3)CC2)cc1` [CBK261904], the viability at 28.5 h, 10 µM is 96.9%.
